The results in this text go back to patent publication US20230391684A1, “NITROGEN FERTILIZER COMPOSITIONS BASED ON POLYPHOSPHATE CAGED STRUCTURE” (priority 2020, published 2023).

Molecules are shown by their SMILES.

Data set [1] is described as follows: Water leaching assay (2 g, 10 mL water, 8 min): water-soluble and water-insoluble nitrogen/urea. The format is physicochemical. As to conditions: 2 g leached with 10 mL water in 8 min, dried residue.
Procedure: Determination of water-insoluble nitrogen: 2 g of the product in powder form, is weighed into a filter paper (Whatman 1) placed in a funnel. It is leached with 10 mL water added dropwise from a burette within a period of 8 min. The wet residue is placed together with the filter paper, in a petridish and dried at 50° C. After drying, the residue is ground and used for analysis of nitrogen.
Determination of water-soluble nitrogen: 2 g of the product in powder form, is weighed into a filter paper (Whatman 1) placed in a funnel. It is leached with 10 mL water added dropwise from a burette within a period of 8 min. The filtrate is placed together with the filter paper, in a petridish and dried at 50° C. After drying, the dried mass is weighed. It is analyzed for N as described above.
On data set [2], the source says: The fertilizer composition will contain urea with reduced water solubility. […] Preferably no more than 30 to 60 wt. % of the urea is soluble. More preferably no more than 30 to 50 wt. % of urea is soluble.
XRD was of the granulated product which was powdered for recording of XRD.

As to `NC(N)=O` [urea], the “urea content of residue after leaching with water” value in data set [1] is “no urea was detectable”. In addition, the “total N from fertilizer soluble in water” value in data set [2] is on record as 100 wt. %.
